Results reported in patent publication US10722514B2 (FLX Bio, Inc., priority 2017, dated 2020).

target: T1, recombinant full-length USP7 (Homo sapiens, UniProt Q93009); assay: USP7-mediated ubiquitin-rhodamine cleavage assay; assay type: biochemical; settings: recombinant full-length USP7 62 pM; ubiquitin-rhodamine 100 nM; 30-minute incubation with compound, 1 hour reaction at room temperature; read-out: Potency: USP7 IC50
T1 construct: A 25 μl reaction volume containing recombinant full-length USP7 (62 pM)
T1 sequence (Q93009 whole entry): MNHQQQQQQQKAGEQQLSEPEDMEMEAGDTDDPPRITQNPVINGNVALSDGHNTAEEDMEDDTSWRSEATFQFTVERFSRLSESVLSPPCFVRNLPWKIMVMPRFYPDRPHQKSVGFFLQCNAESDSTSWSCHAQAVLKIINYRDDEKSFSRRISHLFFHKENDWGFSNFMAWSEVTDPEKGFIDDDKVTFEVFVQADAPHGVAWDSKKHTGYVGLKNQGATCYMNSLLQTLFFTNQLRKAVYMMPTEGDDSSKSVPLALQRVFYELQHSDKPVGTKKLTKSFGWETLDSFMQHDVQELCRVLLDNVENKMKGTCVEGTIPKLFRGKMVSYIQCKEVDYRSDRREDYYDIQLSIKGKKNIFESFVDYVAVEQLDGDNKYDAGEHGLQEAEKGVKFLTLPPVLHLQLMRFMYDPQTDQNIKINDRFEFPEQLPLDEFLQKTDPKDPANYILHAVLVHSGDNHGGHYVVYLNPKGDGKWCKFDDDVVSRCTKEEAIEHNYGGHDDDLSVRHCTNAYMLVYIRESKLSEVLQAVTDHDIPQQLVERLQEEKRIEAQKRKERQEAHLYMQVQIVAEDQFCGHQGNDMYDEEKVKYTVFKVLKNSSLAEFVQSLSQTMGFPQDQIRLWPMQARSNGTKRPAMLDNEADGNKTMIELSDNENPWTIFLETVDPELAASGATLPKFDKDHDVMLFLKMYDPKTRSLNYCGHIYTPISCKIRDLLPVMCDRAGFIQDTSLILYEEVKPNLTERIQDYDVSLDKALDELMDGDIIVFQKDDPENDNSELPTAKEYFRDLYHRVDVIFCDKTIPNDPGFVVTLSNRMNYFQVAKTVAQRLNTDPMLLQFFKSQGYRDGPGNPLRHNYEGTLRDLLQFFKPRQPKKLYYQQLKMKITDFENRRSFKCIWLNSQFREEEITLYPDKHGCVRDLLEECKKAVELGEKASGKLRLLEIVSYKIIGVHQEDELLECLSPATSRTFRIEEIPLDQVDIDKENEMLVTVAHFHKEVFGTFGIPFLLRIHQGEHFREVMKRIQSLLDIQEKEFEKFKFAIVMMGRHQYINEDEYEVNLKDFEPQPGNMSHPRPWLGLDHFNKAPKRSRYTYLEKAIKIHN
Procedure, shortened: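 Compounds are first incubated with 62 pM enzyme for 30 min at room temperature in pH 7.3 HEPES buffer containing TCEP and BSA. Cleavage of 100 nM ubiquitin-rhodamine proceeds for 1 h before an acid quench, and IC50 is derived from fluorescence.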

SMILES | IC50 [µM]
Cc1cc(Cl)cc(-c2ccnc3cc(CN4C(=O)CCCC4=O)sc23)c1O[C@H]1CCCNC1 [Example 237, (S)-1-((7-(5-Chloro-3-methyl-2-(piperidin-3-yloxy)phenyl)thieno[3,2-b]pyridin-2-yl)methyl)piperidine-2,6-dione] | < 1
Cc1cc(Cl)cc(-c2ccnc3cc(CN4C(=O)C5CC5C4=O)sc23)c1O[C@H]1CC[C@H](C)NC1 (stereo partly drawn) [Example 305, 3-[[7-[5-chloro-3-methyl-2-[[(3S,6S)-6-methyl-3-piperidyl]oxy]phenyl]thieno[3,2-b]pyridin-2-yl]methyl]-3-azabicyclo[3.1.0]hexane-2,4-dione; 2,2,2-trifluoroacetic acid] | < 1
CCC(O)c1cc2nccc(-c3cc(C#N)cc(C)c3OCC3(F)CNC3)c2s1 (stereo not drawn) [Example 36, 4-((3-Fluoroazetidin-3-yl)methoxy)-3-(2-(1-hydroxypropyl)thieno[3,2-b]pyridin-7-yl)-5-methylbenzonitrile] | 1 to 10
Cc1cc(Cl)cc(-c2ccnc3cc(CN4C(=O)CCC4=O)sc23)c1O[C@H]1CC[C@H](N2CCC2)C1 [Example 157, 1-((7-(2-(((1S,3S)-3-(Azetidin-1-yl)cyclopentyl)oxy)-5-chloro-3-methylphenyl)thieno[3,2-b]pyridin-2-yl)methyl)pyrrolidine-2,5-dione] | < 1
Cc1cc(Cl)cc(-c2ccnc3cc(CN4C(=O)NC(C)(C)C4=O)sc23)c1O[C@@H]1CNC[C@@H]1F [Example 154, 3-((7-(5-Chloro-2-(((3R,4S)-4-fluoropyrrolidin-3-yl)oxy)-3-methylphenyl)thieno[3,2-b]pyridin-2-yl)methyl)-5,5-dimethylimidazolidine-2,4-dione] | < 1
Cc1cc(C#N)cc(-c2ccnc3ccsc23)c1OCC1(C)CNC1 [Example 44, 3-Methyl-4-((3-methylazetidin-3-yl)methoxy)-5-(thieno[3,2-b]pyridin-7-yl)benzonitrile] | 1 to 10
Cc1cc(Cl)cc(-c2ncnc3cc(CN4C(=O)C(C)C(C)C4=O)sc23)c1O[C@@H]1CNC[C@@H]1F (stereo partly drawn) [Example 379, 1-[[4-[5-chloro-2-[(3R,4S)-4-fluoropyrrolidin-3-yl]oxy-3-methyl-phenyl]thieno[3,2-d]pyrimidin-6-yl]methyl]-3,4-dimethyl-pyrrolidine-2,5-dione; 2,2,2-trifluoroacetic acid] | < 1
Cc1cc(Cl)cc(-c2ccnc3cc(CN4C(=O)CCC4=O)sc23)c1O[C@@H]1CCNC[C@@H]1C [Example 303, 1-[[7-[5-chloro-3-methyl-2-[[(3S,4R)-3-methyl-4-piperidyl]oxy]phenyl]thieno[3,2-b]pyridin-2-yl]methyl]pyrrolidine-2,5-dione] | < 1
Cc1cc(Cl)cc(-c2ccnc3cc(Cn4c(=O)ccn(C5COC5)c4=O)sc23)c1O[C@H]1CCCNC1 [Example 5, (S)-3-((7-(5-Chloro-3-methyl-2-(piperidin-3-yloxy)phenyl)thieno[3,2-b]pyridin-2-yl)methyl)-1-(oxetan-3-yl)pyrimidine-2,4(1H,3H)-dione] | < 1
Cc1cc(Cl)cc(-c2ncnc3cc(CN4C(=O)C5C(C4=O)C5(C)C)sc23)c1OCC1(C)CNC1 (stereo not drawn) [Example 395, 3-[[4-[5-chloro-3-methyl-2-[(3-methylazetidin-3-yl)methoxy]phenyl]thieno[3,2-d]pyrimidin-6-yl]methyl]-6,6-dimethyl-3-azabicyclo[3.1.0]hexane-2,4-dione] | < 1

same assay, conditions: recombinant full-length USP7 62 pM; ubiquitin-rhodamine 100 nM; 30-minute incubation, 1 hour reaction at room temperature; read-out: Potency (USP7 IC50)

SMILES | IC50 [µM]
COCC1(N)CC(Oc2c(C)cc(Cl)cc2-c2ccnc3cc(Cn4c(=O)ccn(CC(F)(F)F)c4=O)sc23)C1 (stereo not drawn) [Example 699, 3-[[7-[2-[3-amino-3-(methoxymethyl)cyclobutoxy]-5-chloro-3-methyl-phenyl]thieno[3,2-b]pyridin-2-yl]methyl]-1-(2,2,2-trifluoroethyl)pyrimidine-2,4-dione] | < 1

same assay, conditions: recombinant full-length USP7 62 pM; ubiquitin-rhodamine 100 nM; 30-minute pre-incubation, 1 hour reaction at room temperature; read-out: Potency (USP7 IC50)

SMILES | IC50 [µM]
Cc1cc(Cl)cc(-c2ccnc3cc(CN4C(=O)CCC4=O)sc23)c1O[C@H]1CC[C@@H](C)NC1 [Example 416, 1-[[7-[5-chloro-3-methyl-2-[[(3S,6R)-6-methyl-3-piperidyl]oxy]phenyl]thieno[3,2-b]pyridin-2-yl]methyl]pyrrolidine-2,5-dione] | < 1
Cc1cc(Cl)cc(-c2ccnc3cc(Cn4c(=O)c(F)cn(C(C)C)c4=O)sc23)c1O[C@H]1CCCNC1 [Example 547, 3-[[7-[5-chloro-3-methyl-2-[[(3S)-3-piperidyl]oxy]phenyl]thieno[3,2-b]pyridin-2-yl]methyl]-5-fluoro-1-isopropyl-pyrimidine-2,4-dione] | < 1
Cc1cc(Cl)cc(-c2ccnc3cc(Cn4c(=O)ccn(C)c4=O)sc23)c1O[C@@H]1CNC[C@@H]1C(F)(F)F [Example 441, 3-[[7-[5-chloro-3-methyl-2-[(3S,4S)-4-(trilfuoromethyl)pyrrolidin-3-yl]oxy-phenyl]thieno[3,2-b]pyridin-2-yl]methyl]-1-methyl-pyrimidine-2,4-dione] | < 1
Cc1cc(Cl)cc(-c2ccnc3cc(CN4C(=O)CCC4=O)sc23)c1OC1CCCC(N)C1 (stereo not drawn) [Example 427, 1-[[7-[2-(3-aminocyclohexoxy)-5-chloro-3-methyl-phenyl]thieno[3,2-b]pyridin-2-yl]methyl]pyrrolidine-2,5-dione; 2,2,2-trifluoroacetic acid] | < 1
Cc1cc(Cl)cc(-c2ccnc3cc(Cn4c(=O)ccn(C)c4=O)sc23)c1OC1CC2CNC1C2 (stereo not drawn) [Example 418] | < 1
Cc1cc(Cl)cc(-c2ccnc3cc(Cn4c(=O)ccn(CC(F)(F)F)c4=O)sc23)c1OC1CNC[C@@]1(C)F (stereo partly drawn) [Example 406, 3-[[7-[5-chloro-2-[(4R)-4-fluoro-4-methyl-pyrrolidin-3-yl]oxy-3-methyl-phenyl]thieno[3,2-b]pyridin-2-yl]methyl]-1-(2,2,2-trifluoroethyl)pyrimidine-2,4-dione; 2,2,2-trifluoroacetic acid] | < 1
Cc1cc(Cl)cc(-c2ccnc3cc(Cn4c(=O)ccn(C(C)C)c4=O)sc23)c1O[C@H]1CCC2NCCO[C@H]21 (stereo partly drawn) [Example 511, 4-[[7-[2-[[(7S,7aR)-2,3,4,4a,5,6,7,7a-octahydrocyclopenta[b][1,4]oxazin-7-yl]oxy]-5-chloro-3-methyl-phenyl]thieno[3,2-b]pyridin-2-yl]methyl]-1-isopropyl-pyrimidine-2,4-dione] | < 1
Cc1cc(Cl)cc(-c2ncnc3cc(Cn4c(=O)ccn(C(C)C)c4=O)sc23)c1O[C@H]1CCCN(C)C1 [Example 512, 3-[[4-[5-chloro-3-methyl-2-[[(3S)-1-methyl-3-piperidyl]oxy]phenyl]thieno[3,2-d]pyrimidin-6-yl]methyl]-1-isopropyl-pyrimidine-2,4-dione] | < 1
Cc1cc(Cl)cc(-c2ncnc3cc(Cn4c(=O)ccn(CC(F)(F)F)c4=O)sc23)c1OC1CNC1 [Example 587, 3-[[4-[2-(azetidin-3-yloxy)-5-chloro-3-methyl-phenyl]thieno[3,2-d]pyrimidin-6-yl]methyl]-1-(2,2,2-trifluoroethyl)pyrimidine-2,4-dione] | < 1
Cc1cc(Cl)cc(-c2ncnc3cc(Cn4c(=O)ccn(C(C)C)c4=O)sc23)c1O[C@@H]1CCN(C)C[C@@H]1C [Example 510, 3-[[4-[5-chloro-2-[[(3S,4R)-1,3-dimethyl-4-piperidyl]oxy]-3-methyl-phenyl]thieno[3,2-d]pyrimidin-6-yl]methyl]-1-isopropyl-pyrimidine-2,4-dione] | < 1
